A short description of the data set: gradient 5% acetonitrile 3 min, to 50% in 2 min, to 85% in 15 min, held 3 min, 100 µL/min. The following applies: column: Zorbax Extend-C18 2.1 x 50 mm; eluents: water / acetonitrile, 0.1% formic acid. In short, it runs like this: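 Retention times of pure standards were taken from adduct peaks that were selected by computer and manually inspected. Over 3 months, mixtures of ~100 molecules were run by HPLC–quadrupole time-of-flight mass spectrometry in positive and negative ionization mode. The Zorbax Extend-C18 column (2.1 × 50 mm, 1.8 μm) ran at 100 μL/min in water and acetonitrile, each containing 0.1% formic acid, with 40 μL dead volume and 900 μL dwell volume.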
`Cc1cc(C)cc(C(=O)NC2CCN(c3cc(-c4ccc(Cl)cc4)[nH]n3)C2)c1` (centres undefined) registered an RP-LC retention time of 883 s.
The same measure for `CCOC(=O)c1c(C)[nH]c(C(=O)N2CCC(C(C)C(=O)NCc3ccc(F)cc3Cl)CC2)c1C` (centres undefined): 863 s.
`O=C(Nc1cccc(C(=O)N2CCN(c3cccc(Cl)c3)CC2)c1)C1=CSCCO1`: the RP-LC retention time came out at 953 s.
In turn, `COc1ccc(-c2nnc(CC(=O)NCC(C)C)o2)cc1` gave an RP-LC retention time of 705 s.
`O=C1COc2ccc(S(=O)(=O)N3CCC(C(=O)Nc4ccc(OC(F)(F)F)cc4)CC3)cc2N1`: the RP-LC retention time stood at 909 s.
Turning to `COc1ccc(N2CCN(C(=O)C3CCCN(S(=O)(=O)c4cn(C(C)C)cn4)C3)CC2)cc1` (centres undefined), the RP-LC retention time amounted to 723 s.
On to `CCc1nc2c(NC(=O)c3cccs3)cccn2n1`, for which the RP-LC retention time was 761 s.
The molecule `CCS(=O)(=O)N1C[C@@H](COC)[C@H](c2ccncc2)C1` came in with an RP-LC retention time of 544 s.
The same measure for `CN(C)c1cc2c(Nc3ccc4c(cnn4Cc4ccccc4)c3)ncnc2cn1`: 820 s; for `O=C(Cn1nnc2ccccc2c1=O)NCCc1c[nH]c2ccc(Cl)cc12`: 819 s.
As for `CCc1ccc(-c2nc(-c3ccc4nnn(C)c4c3)no2)cc1`, the RP-LC retention time came out at 1150 s.
With `CSc1cccc(NC(=O)NC2CCN(c3ccc(F)c(C)c3)C2=O)c1` (centres undefined), the RP-LC retention time is 867 s.
The same measure for `Cc1ccnc(N2CCCC(C(=O)NCC3CCN(Cc4ccccc4F)CC3)C2)n1` (centres undefined): 608 s.
Consider `O=c1c2nc(-c3ccc4c(c3)OCO4)cn2ccn1-c1ccc(F)cc1`, for which the RP-LC retention time came to 772 s.
Turning to `O=C(NCc1cccs1)C1CCN(c2cnc(N3CCSCC3)nc2)CC1`, the RP-LC retention time is 751 s.
The same measure for `Cc1noc(-c2ccnc(-n3ncc(C(=O)N4CCC(C)CC4)c3C)c2)n1`: 946 s.
With `CC(NC(=O)C(=O)NCc1nc(-c2ccccc2)no1)c1ccccc1` (centres undefined), the RP-LC retention time stood at 856 s.
The same measure for `Cc1cc(C)cc(-n2c(-c3ccc(Cl)cc3)cn3c4c(=O)n(C)c(=O)n(C)c4nc23)c1`: 1130 s.
In turn, `CC1CCN(C(=O)CN(C)S(=O)(=O)c2ccc3c(c2)CCCC(=O)N3)CC1` registered an RP-LC retention time of 713 s.
The same measure for `Cc1ccc(-n2c(=O)c3c(cc(C)n3C)n(CC(=O)Nc3ccc(C)c(C)c3)c2=O)cc1`: 906 s.
As for `Cc1sc(-c2nnc(C3CC3)o2)cc1NC(=O)c1n[nH]c2c1CCCC2`, the RP-LC retention time was 916 s.
`COc1cc(C)c(C(C)C)cc1S(=O)(=O)Nc1cccc(C)n1`: the RP-LC retention time worked out at 781 s.
The same measure for `O=C1[C@H]2CN(Cc3cc(Cl)ccc3F)C[C@H]2C(=O)N1CCN1CCc2ccccc2C1`: 684 s; for `O=C(Cn1nc2c(cc1=O)CCCC2)Nc1cccc(N2CCCCS2(=O)=O)c1`: 715 s.
`CCCCN(C)S(=O)(=O)c1cc(-c2nnc(C)o2)co1` had an RP-LC retention time of 821 s.
In turn, `CCSc1nnc(-c2nn(C)c3c2CN(C(=O)c2ccccc2C)CC3)n1C` returned an RP-LC retention time of 734 s.
Molecule `CCn1c(=O)c(-c2noc(C(=O)N3CCN(c4ccccn4)CC3)n2)nn(-c2ccc(F)cc2)c1=O` registered an RP-LC retention time of 676 s.
`C(=C\c1ccccn1)/c1ccccn1`: the RP-LC retention time was 590 s.
As for `CN(C)CCOc1ccc2c(c1)C(=O)/C(=C\c1ncc([N+](=O)[O-])n1C)C2`, the RP-LC retention time worked out at 695 s.
The same measure for `COCc1nnc(C(=O)Nc2ccc(C(=O)NCCc3c[nH]c4ccc(C)cc34)cc2)s1`: 844 s; for `Brc1ccc(-c2ccc(CNCc3cccnc3)o2)c(Br)c1`: 686 s; for `COCCNC(=O)c1cc2occc2c(Nc2ccc(Br)c(C)c2)n1`: 1040 s.
`Cc1c(Cl)cccc1-c1ccc(CNCCc2ccc(S(N)(=O)=O)cc2)o1` showed an RP-LC retention time of 704 s.
The same measure for `Cc1cc(C)n(-c2ccc(C(=O)NCc3ccc(C)o3)cn2)n1`: 848 s; for `Cc1cc(N2CCN(C)CC2)nc2ccc(NC(=S)NCc3ccc4c(c3)OCO4)cc12`: 586 s; for `CCc1cccc(C)c1Nc1c(-c2ccc(O)c(OC)c2)nc2nc(C)cc(C)n12`: 710 s.
The same measure for `O=[N+]([O-])c1ccc(CSc2nc3ccccc3o2)cc1`: 1020 s; for `CCc1ccc(CNC(=O)Cn2c(C)nc3onc(CC)c3c2=O)cc1`: 885 s; for `CN1C(=O)Cc2ccccc2C1C(=O)NCc1ccc(F)cc1` (centres undefined): 706 s.
As for `O=C(NC1CCCC1)c1c2c(nc3ccc(F)cc13)CCC2`, the RP-LC retention time turned out to be 750 s.
For the molecule `Cc1ccc(NC(=O)C2CCCN2S(=O)(=O)c2cc3c(cc2Cl)NC(=O)CO3)cc1` (centres undefined), the RP-LC retention time was 800 s.
The same measure for `CCOc1ccc(C(=O)N2CCC3(CC2)NC(=O)c2cc(C)ccc2N3CC)cc1`: 878 s; for `Cn1cc(C(=O)NCc2ccccc2)c(S(=O)(=O)N2CCSCC2)n1`: 834 s.
With `COc1cc2c(cc1OC)C1C(C(=O)Nc3ccc4c(c3)OCO4)c3ccccc3C(=O)N1CC2` (centres undefined), the RP-LC retention time worked out at 779 s.
In the case of `Cc1ccc2c(c1)N(S(C)(=O)=O)CCC(C(=O)Nc1ccc(C(F)(F)F)cc1)O2` (centres undefined), the RP-LC retention time worked out at 1090 s.
Molecule `Cc1cc(C(=O)N2CCCCCC2)nc2cc(-c3cccs3)nn12` came in with an RP-LC retention time of 977 s.
The same measure for `CCN1C(=O)COc2ccc(-c3nc(NC(=O)c4ccccc4Cl)sc3C)cc21`: 1000 s.
In turn, `Cn1c(=O)c(=O)n(C)c2cc(NC(=O)c3cccs3)ccc21` yielded an RP-LC retention time of 653 s.
In turn, `Cc1nn(CC(=O)N2CCN(C)CC2)c(=O)c2cc(-c3ccccc3)nn12` showed an RP-LC retention time of 626 s.
Molecule `COc1ccc(C2=NC3(CCN(C)CC3)NC(c3cccc(OC)c3O)C2)cc1` (centres undefined) had an RP-LC retention time of 583 s.
Turning to `CCN(CC)C(=O)c1ccc(O)c(OC)c1`, the RP-LC retention time was determined as 718 s.
The molecule `O=C(NC1CC1)c1ccc(-c2nc3cccnc3n(C3CCCC3)c2=O)cc1` registered an RP-LC retention time of 970 s.
The molecule `CC(C)n1c(N2CCN(C(=O)c3cccs3)CC2)cc(=O)n(C(C)C)c1=O` yielded an RP-LC retention time of 812 s.
The same measure for `COc1ccccc1NC(=O)C1CCCN(c2nc3ccccc3nc2OC)C1` (centres undefined): 1160 s; for `COc1cccc(CN2CC[C@@H]3CN(S(C)(=O)=O)[C@@H]3C2)n1`: 553 s; for `COC(=O)C1=CN(c2cccc(C#N)c2)c2ccccc2S1(=O)=O`: 754 s.
As to `Cc1ccc(CNC(=O)C2(C)Cn3cnc(C(=O)NCc4cccc(C)c4)c3C(=O)N2C2CC2)cc1` (centres undefined), the RP-LC retention time was 813 s.
Consider `CN1CCCN(C(c2ccccc2)c2ccc(Cl)cc2)CC1` (centres undefined), for which the RP-LC retention time worked out at 796 s.
For the molecule `Cc1ccc(-c2noc(-c3cccn4c(=O)n(Cc5ccc6c(c5)OCO6)nc34)n2)cc1`, the RP-LC retention time is 1010 s.
Regarding `Cc1cc(-c2c(C)sc(C)c2S(=O)(=O)NC2CCCCCC2)n[nH]1`, the RP-LC retention time came out at 1140 s.
In turn, `Cc1cccc(C2=NC3(CCN(C(=O)c4ccc5c(c4)OCO5)CC3)NC2=O)c1` yielded an RP-LC retention time of 792 s.
The same measure for `Cc1cc2nn(CC(=O)Nc3ccc(F)cc3)c(=O)n2c(-c2ccccc2)n1`: 785 s; for `Cc1ccn2c(NC(=O)c3ccc(F)cc3)c(-c3ccc(F)cc3)nc2c1`: 672 s; for `CCCCNC(=O)C1CCN(c2ccc(Sc3cc(C)ccc3C)nn2)CC1`: 819 s.
Turning to `COC(=O)C1=CN(c2cccc(Cl)c2)c2cc(F)ccc2S1(=O)=O`, the RP-LC retention time worked out at 897 s.
As to `N#Cc1cccc(-c2cn3c(n2)N(C(=O)c2cccnc2)CCC3)c1`, the RP-LC retention time amounted to 641 s.
For the molecule `Cn1cc(-c2cnn3c(N)c(Br)c(C4CCCNC4)nc23)cn1` (centres undefined), the RP-LC retention time was 613 s.
Regarding `CC(=O)Nc1nc(-c2ccc(S(=O)(=O)N3CCOCC3)cc2)cs1`, the RP-LC retention time came to 735 s.
The same measure for `O=C(CC1CCCCC1)NCC(=O)Nc1nc2ccccc2[nH]1`: 661 s.
On to `COc1ccc(NC(=O)C2CCCN(c3cnc4nccnc4c3)C2)c(C)c1` (centres undefined), for which the RP-LC retention time is 693 s.
`Cc1cccc(CNC2=NCCNC23CCN(S(=O)(=O)c2cc(C)cc(C)c2)CC3)c1` yielded an RP-LC retention time of 787 s.
`CC(C)Cn1c(CC2CCN(C(=O)COc3ccccc3)C2)nc2cccnc21` (centres undefined) gave an RP-LC retention time of 672 s.
`CSc1ncccc1-c1nc(-c2ccc3oc(C)nc3c2)no1` had an RP-LC retention time of 1100 s.
As for `Cn1c(=O)sc2cc(S(=O)(=O)N3CCC(C(=O)Nc4ccc5c(c4)OCCO5)CC3)ccc21`, the RP-LC retention time was found to be 812 s.
`CC(=O)Nc1ccc(C(=O)N2CCC3(CC2)N=C(c2cccc(Br)c2)NO3)cc1` gave an RP-LC retention time of 731 s.
As to `O=C(Nc1nnc(C2CC(=O)N(c3ccccc3)C2)o1)c1ccc(C(F)(F)F)cc1` (centres undefined), the RP-LC retention time turned out to be 793 s.
In the case of `O=C(CCC1CCN(c2cc(NC3CC3)ncn2)CC1)NCc1ccc(Cl)cc1`, the RP-LC retention time was found to be 680 s.
Turning to `CC1=C(c2ccc(C)c(C)c2)S(=O)(=O)N=C1N1CCCN(C(=O)CC2CCCC2)CC1`, the RP-LC retention time was 967 s.
The same measure for `Cc1oc(C2CCN(C(=O)Nc3cc(F)cc(F)c3)CC2)nc1C(=O)N1CCCC1`: 917 s.

The values are drawn from the METLIN SMRT retention time set (Domingo-Almenara et al. 2019).
